From patent publication US9650427B2, “Modulators of antiviral signaling pathways and therapeutic uses thereof” (priority 2011, dated 2017)

How the values were obtained:
RLR/MAVS pathway = test: PolyIC-induced IFN expression in polarized T84 cells, quantitative RT-PCR; format: cell-based, human; settings: T84 cells pretreated 1 hour with peptide/inhibitor, then PolyIC for 5 hours; FIG. 2
Procedure: FIG. 2 includes graphs showing the inhibitory effects of the novel RLR/MAVS signaling inhibitor. The results are from T84 cells that were treated for 1 hr with the inhibitors shown and then treated with PolyIC (PIC) for 5 hours. Cytokine expression was then assessed by qPCR. The y-axis indicates fold induction over untreated cells (UI).
To determine if the MAVS peptide can block RLR signaling in human cells, experiments were performed in the human intestinal epithelial cell (IEC) line T84 comparing the peptide to a previously characterized antennapedia-peptide that targets the TLR adaptor MyD88. These cells were chosen because it is well-known that many viruses penetrate the intestinal epithelium and it has been shown that they respond naturally to both TLR and RLR ligands (FIG. 2 and data not shown). Polarized T84 cells were pretreated for 1 hour with each peptide and then treated for 5 hours with synthetic viral RNA PolyIC, which activates signaling by […]. […] This inhibitory affect was specific, as the IFN expression was unaffected in cells treated with control peptides.

[1] = test system: antiviral responses in human cells; test: Blocking of antiviral responses in human cells; format: cell-based; settings: at micromolar concentrations
From the text: Accordingly, described herein is a cell-permeable peptide inhibitor of antiviral pathways that operates in every human cell. It consists of the cell penetrating domain of the Drosophila antennapedia protein and amino acids 50-73 of the human MAVS protein. […]. This peptide represents the first described means of blocking antiviral responses in human cells before or at any time after infection by a virus. Moreover, this molecule can serve as a therapeutic to treat inflammatory autoimmune diseases (e.g., those that are caused by inappropriate activation of antiviral responses). No other method currently exists to accomplish these goals.

Row | Compound | expression of Type I IFN (IFNβ) and Type III IFN IL-29 in response to PolyIC (RLR/MAVS pathway) | antiviral responses (expression of Type I and III interferons and interferon stimulated genes, including viperin) [1]
1 | GNRDTLWHLFNTLQRRPGWVEYFI-RQIKIWFQNRRMKWKK (GNRDTLWHLFNTLQRRPGWVEYFIRQIKIWFQNRRMKWKK) [MAVS peptide, fusion peptide of amino acids 50-73 of MAVS and the cell penetrating domain of the antennapedia protein] | completely abolished | blocks antiviral responses in human cells at micromolar concentrations
2 | CCN(CC)CCCC(C)Nc1ccnc2cc(Cl)ccc12 (stereo not drawn) [chloroquine, reference compound] | neither chloroquine (which blocks TLRs that detect viral RNA) nor inhibitors of the dsRNA dependent kinase PKR, affected | –
